The values below come from ChEMBL document CHEMBL3991601, “The target landscape of clinical kinase drugs” (Science, 2017).

Test [1] addresses T1, Glycogen phosphorylase, liver form (Homo sapiens, UniProt P06737).
T1 sequence (P06737 whole entry): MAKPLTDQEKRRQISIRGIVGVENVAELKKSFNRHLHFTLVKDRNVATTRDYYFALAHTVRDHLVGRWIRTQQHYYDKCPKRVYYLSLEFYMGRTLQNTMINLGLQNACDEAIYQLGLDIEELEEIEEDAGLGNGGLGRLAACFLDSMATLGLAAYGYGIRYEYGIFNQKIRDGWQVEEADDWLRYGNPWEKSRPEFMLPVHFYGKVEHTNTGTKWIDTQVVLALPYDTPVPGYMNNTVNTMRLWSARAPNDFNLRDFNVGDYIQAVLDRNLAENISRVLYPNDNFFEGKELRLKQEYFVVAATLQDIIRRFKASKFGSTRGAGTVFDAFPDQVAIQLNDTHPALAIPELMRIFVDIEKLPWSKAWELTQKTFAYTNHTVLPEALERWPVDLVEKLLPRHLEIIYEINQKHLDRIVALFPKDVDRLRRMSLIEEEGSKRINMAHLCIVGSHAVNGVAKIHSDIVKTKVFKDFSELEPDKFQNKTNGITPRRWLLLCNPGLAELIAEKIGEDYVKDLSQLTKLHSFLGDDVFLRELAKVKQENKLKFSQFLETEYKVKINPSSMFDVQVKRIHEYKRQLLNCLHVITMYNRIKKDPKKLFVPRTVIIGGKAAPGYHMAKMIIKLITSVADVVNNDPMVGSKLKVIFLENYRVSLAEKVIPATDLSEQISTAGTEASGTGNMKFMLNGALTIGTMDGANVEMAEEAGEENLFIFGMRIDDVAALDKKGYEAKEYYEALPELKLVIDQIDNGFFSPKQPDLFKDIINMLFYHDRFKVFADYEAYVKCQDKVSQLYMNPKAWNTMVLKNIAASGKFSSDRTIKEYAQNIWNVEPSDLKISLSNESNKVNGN
In kind it is subcellular, K-562, COLO 205, SK-N-BE(2) and MV-4-11, Cell lysate. The conditions noted are these: read-out: Kd apparent.

The target in test [2] is AP2-associated protein kinase 1 (Homo sapiens, UniProt Q2M2I8).
Chain of AP2-associated protein kinase 1 (Q2M2I8 whole entry, the tested form may be a part): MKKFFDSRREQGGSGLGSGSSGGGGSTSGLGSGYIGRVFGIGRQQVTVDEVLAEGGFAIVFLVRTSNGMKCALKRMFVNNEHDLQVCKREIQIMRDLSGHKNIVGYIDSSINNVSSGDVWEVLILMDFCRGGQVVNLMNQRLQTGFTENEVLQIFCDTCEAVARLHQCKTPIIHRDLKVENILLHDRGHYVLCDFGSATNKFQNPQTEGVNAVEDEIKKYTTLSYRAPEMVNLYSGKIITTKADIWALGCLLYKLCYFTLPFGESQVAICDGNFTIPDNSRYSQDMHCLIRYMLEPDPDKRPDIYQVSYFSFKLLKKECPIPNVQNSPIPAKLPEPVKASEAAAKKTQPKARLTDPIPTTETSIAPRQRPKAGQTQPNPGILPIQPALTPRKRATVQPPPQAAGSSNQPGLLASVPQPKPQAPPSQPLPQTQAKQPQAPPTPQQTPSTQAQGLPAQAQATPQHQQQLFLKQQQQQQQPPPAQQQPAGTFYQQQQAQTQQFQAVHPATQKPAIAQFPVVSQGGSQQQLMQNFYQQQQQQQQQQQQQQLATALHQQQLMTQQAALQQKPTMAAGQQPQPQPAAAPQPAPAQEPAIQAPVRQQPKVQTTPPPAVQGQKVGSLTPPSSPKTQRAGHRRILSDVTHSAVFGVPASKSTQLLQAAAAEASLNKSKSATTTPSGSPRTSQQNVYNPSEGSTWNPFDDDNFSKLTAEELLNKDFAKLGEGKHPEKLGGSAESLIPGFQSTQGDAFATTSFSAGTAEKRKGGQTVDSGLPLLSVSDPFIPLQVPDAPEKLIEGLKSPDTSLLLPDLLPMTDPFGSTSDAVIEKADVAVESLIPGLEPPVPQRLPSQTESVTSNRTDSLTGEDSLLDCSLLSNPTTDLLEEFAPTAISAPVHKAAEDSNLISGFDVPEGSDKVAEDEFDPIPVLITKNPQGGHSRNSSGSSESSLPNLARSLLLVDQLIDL
The target in test [3] is T2, AarF domain-containing protein kinase 1 (Homo sapiens, UniProt Q86TW2).
T2 sequence (Q86TW2 whole entry): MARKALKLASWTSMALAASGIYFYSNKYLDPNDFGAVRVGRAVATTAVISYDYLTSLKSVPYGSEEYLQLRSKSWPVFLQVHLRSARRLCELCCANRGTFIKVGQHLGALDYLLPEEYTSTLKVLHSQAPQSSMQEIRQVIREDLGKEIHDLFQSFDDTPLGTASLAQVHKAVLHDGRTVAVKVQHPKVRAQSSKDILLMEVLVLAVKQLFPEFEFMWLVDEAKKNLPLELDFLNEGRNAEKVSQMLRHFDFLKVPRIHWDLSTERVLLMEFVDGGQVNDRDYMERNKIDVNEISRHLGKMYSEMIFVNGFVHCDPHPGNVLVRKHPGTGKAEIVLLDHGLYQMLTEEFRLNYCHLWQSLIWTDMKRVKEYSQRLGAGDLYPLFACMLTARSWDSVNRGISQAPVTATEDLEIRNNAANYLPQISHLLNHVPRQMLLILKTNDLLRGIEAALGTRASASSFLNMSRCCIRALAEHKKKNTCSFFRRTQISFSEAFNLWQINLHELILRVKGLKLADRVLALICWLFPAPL

The target of test [4] is Cyclin-dependent kinase 2 (Homo sapiens, UniProt P24941).
The target of test [5] is Casein kinase I isoform epsilon (Homo sapiens, UniProt P49674).
Chain of Casein kinase I isoform epsilon (P49674 whole entry, canonical isoform): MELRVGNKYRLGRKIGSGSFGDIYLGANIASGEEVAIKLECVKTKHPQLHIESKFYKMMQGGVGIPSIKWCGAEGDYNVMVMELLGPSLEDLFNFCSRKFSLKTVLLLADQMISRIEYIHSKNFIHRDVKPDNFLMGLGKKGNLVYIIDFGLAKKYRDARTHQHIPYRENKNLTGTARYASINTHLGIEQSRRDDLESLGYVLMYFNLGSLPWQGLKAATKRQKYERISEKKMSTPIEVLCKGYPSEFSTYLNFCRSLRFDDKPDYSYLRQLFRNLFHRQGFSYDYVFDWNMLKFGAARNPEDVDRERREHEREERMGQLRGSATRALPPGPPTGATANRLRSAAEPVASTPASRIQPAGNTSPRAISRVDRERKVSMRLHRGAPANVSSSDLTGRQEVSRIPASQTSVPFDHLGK
Test [6] deals with ATP-dependent RNA helicase DDX3X (Homo sapiens, UniProt O00571).
Chain of ATP-dependent RNA helicase DDX3X (O00571 whole entry, canonical isoform): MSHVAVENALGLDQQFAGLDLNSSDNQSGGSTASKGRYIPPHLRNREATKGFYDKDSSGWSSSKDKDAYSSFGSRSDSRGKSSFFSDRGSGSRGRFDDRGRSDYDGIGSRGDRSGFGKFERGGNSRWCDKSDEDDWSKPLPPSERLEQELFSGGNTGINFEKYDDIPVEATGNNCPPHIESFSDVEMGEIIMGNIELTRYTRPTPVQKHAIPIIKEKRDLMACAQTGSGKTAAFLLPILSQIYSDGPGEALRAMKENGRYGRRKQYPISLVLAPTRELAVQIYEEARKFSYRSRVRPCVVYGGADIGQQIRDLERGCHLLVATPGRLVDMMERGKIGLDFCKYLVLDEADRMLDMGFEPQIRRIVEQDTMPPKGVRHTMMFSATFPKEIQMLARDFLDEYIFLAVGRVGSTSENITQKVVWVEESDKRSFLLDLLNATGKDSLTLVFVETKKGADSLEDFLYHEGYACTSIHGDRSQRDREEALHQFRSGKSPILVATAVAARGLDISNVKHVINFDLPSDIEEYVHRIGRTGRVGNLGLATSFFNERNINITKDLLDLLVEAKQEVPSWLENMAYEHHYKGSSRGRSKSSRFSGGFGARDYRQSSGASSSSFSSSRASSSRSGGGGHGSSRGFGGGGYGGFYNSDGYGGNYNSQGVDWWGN
The target of test [7] is S-adenosylmethionine synthase isoform type-2 (Homo sapiens, UniProt P31153).
Chain of S-adenosylmethionine synthase isoform type-2 (P31153 whole entry, canonical isoform): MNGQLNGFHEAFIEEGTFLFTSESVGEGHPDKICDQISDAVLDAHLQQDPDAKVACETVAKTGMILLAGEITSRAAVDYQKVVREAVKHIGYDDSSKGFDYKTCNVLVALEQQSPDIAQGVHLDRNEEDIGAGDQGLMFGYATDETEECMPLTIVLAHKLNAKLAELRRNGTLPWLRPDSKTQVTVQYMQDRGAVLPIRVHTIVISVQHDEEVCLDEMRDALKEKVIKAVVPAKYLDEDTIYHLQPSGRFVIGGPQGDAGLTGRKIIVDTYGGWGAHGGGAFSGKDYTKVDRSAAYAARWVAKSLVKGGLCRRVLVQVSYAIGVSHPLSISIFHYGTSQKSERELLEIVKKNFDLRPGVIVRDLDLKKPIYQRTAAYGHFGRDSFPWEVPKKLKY
For test [8], the target named is T3, Serine/threonine-protein kinase Nek2 (Homo sapiens, UniProt P51955).
T3 sequence (P51955 whole entry): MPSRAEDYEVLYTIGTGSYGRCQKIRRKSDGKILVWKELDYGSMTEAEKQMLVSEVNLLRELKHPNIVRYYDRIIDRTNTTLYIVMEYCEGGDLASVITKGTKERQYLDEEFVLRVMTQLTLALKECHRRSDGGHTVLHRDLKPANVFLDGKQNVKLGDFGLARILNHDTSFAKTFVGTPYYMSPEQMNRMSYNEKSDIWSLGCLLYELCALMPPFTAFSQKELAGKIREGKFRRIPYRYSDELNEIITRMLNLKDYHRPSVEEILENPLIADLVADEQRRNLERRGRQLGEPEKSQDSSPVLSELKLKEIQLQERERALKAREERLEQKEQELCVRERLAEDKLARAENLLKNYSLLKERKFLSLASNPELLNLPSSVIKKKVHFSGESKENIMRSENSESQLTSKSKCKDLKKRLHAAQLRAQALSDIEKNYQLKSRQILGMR

Test [9] has as its target T4, Pyridoxal kinase (Homo sapiens, UniProt O00764).
T4 sequence (O00764 whole entry): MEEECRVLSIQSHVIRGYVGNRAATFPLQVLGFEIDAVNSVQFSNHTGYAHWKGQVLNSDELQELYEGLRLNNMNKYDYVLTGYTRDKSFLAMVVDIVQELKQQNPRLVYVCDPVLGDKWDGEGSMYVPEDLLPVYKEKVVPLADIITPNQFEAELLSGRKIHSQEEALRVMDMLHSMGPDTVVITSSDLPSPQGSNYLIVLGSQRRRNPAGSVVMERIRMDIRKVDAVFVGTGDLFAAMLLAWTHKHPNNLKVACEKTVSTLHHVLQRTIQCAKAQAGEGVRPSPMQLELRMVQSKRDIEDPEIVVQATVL

For test [10], the target named is Protein kinase C alpha type (Homo sapiens, UniProt P17252).
The target of test [11] is T5, Ras-related protein Rab-27A (Homo sapiens, UniProt P51159).
T5 sequence (P51159 whole entry): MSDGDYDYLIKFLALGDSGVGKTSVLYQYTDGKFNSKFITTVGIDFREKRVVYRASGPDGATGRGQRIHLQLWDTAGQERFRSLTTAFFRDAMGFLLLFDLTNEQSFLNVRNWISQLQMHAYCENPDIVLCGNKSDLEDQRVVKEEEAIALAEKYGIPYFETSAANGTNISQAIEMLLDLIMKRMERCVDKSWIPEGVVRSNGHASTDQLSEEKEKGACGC

Test [12] deals with Rho-associated protein kinase 2 (Homo sapiens, UniProt O75116).
Chain of Rho-associated protein kinase 2 (O75116 whole entry): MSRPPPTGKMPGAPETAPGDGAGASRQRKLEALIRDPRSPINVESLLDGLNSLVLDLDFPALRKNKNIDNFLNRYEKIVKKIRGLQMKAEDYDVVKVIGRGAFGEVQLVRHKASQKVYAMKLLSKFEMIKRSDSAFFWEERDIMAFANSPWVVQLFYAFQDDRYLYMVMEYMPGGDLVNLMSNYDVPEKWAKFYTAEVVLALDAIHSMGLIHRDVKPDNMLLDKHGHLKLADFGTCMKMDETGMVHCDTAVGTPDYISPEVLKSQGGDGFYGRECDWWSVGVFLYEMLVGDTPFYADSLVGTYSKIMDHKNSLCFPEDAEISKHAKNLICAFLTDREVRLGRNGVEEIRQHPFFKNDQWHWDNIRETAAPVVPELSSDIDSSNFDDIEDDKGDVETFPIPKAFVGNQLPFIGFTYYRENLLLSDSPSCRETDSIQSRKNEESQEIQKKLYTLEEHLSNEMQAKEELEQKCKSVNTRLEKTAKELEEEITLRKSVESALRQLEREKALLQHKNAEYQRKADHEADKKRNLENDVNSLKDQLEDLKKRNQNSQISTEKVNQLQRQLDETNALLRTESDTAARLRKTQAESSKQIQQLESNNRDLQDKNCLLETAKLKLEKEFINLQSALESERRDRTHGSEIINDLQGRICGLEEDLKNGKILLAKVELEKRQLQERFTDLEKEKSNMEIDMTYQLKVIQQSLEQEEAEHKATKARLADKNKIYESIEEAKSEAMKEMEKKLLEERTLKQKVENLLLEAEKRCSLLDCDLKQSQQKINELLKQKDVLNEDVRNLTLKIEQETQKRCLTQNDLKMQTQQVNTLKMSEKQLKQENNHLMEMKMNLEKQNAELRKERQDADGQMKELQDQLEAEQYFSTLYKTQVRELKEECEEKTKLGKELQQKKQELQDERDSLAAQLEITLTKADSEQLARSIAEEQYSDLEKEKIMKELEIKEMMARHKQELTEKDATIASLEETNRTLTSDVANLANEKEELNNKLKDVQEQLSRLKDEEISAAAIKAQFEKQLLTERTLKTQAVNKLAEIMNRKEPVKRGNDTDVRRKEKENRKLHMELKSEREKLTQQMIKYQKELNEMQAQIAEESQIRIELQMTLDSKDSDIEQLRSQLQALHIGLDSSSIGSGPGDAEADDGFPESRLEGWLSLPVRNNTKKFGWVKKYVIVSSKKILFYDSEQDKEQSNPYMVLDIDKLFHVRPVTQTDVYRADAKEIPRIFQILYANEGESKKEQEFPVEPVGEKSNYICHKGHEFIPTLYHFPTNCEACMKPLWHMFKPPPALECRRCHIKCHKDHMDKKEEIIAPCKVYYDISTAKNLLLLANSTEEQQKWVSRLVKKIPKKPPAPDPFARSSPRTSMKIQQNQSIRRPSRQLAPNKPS
Test [13] deals with TGF-beta receptor type-2 (Homo sapiens, UniProt P37173).
Chain of TGF-beta receptor type-2 (P37173 whole entry): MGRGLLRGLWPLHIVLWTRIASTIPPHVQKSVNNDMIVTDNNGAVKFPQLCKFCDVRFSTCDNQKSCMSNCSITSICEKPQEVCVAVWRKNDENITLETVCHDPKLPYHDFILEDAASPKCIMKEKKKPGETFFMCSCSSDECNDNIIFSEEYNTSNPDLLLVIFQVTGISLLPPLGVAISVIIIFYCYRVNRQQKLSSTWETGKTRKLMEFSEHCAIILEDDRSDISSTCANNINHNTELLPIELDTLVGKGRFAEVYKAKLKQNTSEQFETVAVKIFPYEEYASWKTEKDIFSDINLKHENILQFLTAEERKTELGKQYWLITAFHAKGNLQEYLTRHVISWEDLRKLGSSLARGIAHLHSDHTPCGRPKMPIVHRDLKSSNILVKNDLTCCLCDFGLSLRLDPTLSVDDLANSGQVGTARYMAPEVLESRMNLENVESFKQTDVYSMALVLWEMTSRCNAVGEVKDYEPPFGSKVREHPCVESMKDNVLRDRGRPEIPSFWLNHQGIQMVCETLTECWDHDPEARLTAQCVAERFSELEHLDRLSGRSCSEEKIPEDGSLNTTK

Active and inactive are the calls of the source. For most assays here, no stated cut-off is given here; in the data, actives have a measured Kd and inactives only a lower limit. Where only a bound is given, the exact number is not on record here.

As for `CNC(=O)c1cc(COc2nnc(Nc3ccc(Cl)cc3)c3ccoc23)ccn1` [TELATINIB], the Kd in test [1], in test [2], in [3], in test [4], in test [5] and in test [6] was > 30 µM (inactive) throughout. For the same molecule, the Kd in [7], in [8], in test [9], in test [10], in test [11] and in test [12] was > 30 µM (inactive) throughout. Also, the Kd in test [13] was > 30 µM (inactive).
Take `CNC(=O)c1cccc(-c2ccc3c(N4CCOC[C@@H]4C)nc(N4CCOC[C@@H]4C)nc3n2)c1` [VISTUSERTIB]: the Kd in test [1], in test [2], in test [3], in [4], in test [5] and in test [6] was > 30 µM (inactive) in each case. The Kd in [7], in [8], in [9], in test [10], in [11] and in [12] was > 30 µM (inactive) in each case. Also, in [13], the Kd was > 30 µM (inactive).
In the case of `O=C(NC[C@H](O)CO)c1ccncc1Nc1ccc(I)cc1F` [PIMASERTIB], the Kd in test [1], in test [2], in [3], in test [4], in test [5] and in [6] was > 30 µM (inactive) in each case. The Kd in test [7], in test [8], in [9], in test [10], in test [11] and in [12] was > 30 µM (inactive) in each case. In addition, in [13], the Kd is > 30 µM (inactive).
Take `CC1(COc2ccc3c(c2)ncn3-c2ccc3cccc(N4CCC(N)CC4)c3n2)COC1` [CRENOLANIB]: the Kd in [1] was > 30 µM (inactive); in test [2], > 30 µM (inactive); in test [3], > 30 µM (inactive); in [4], 0.128 µM (active); in test [5] it was > 30 µM (inactive); in [6] it was > 30 µM (inactive). Also, the Kd in test [7], in test [8], in [9], in [10], in test [11] and in [12] was > 30 µM (inactive) throughout. Further, the Kd in test [13] was > 30 µM (inactive).
In the case of `COc1ccc2c(OCc3nnc4ccc(-c5ccccc5)nn34)ccnc2c1` [AMG-208], the Kd in [1], in test [2], in test [3], in test [4], in test [5] and in test [6] was > 30 µM (inactive) throughout. Moreover, the Kd in test [7], in test [8], in [9], in test [10], in test [11] and in [12] was > 30 µM (inactive) each time. Also, the Kd in [13] is > 30 µM (inactive).
On to `COc1ccc(-c2ccc3ncc4c(c3c2)n(-c2ccc(N3CCNCC3)c(C(F)(F)F)c2)c(=O)n4C)cn1` [BGT-226 FREE BASE], for which the Kd in test [1], in test [2], in test [3], in [4], in test [5] and in test [6] was > 30 µM (inactive) throughout. Further, the Kd in [7], in test [8], in test [9], in [10], in [11] and in test [12] was > 30 µM (inactive) each time. The Kd in [13] is > 30 µM (inactive).
